{"source": "patent US10059733B2", "about": "(NUCORION PHARMACEUTICALS, INC., priority 2014, dated 2018)", "key": {"[1]": {"assay": "In vivo toxicology assessment in mice", "parameters": "species or system CD-1 ICR mice", "conditions": "oral gavage 20 mg/kg in Formulation I", "protocol": "All in vivo toxicology assays were performed with CD-1 ICR mice (female, 4-6 week old; 20-30 gram body weight). Compound 1 (Table 1) was first dissolved in Formulation I containing 5% dimethyl sulfoxide (DMSO), 20% solutol, 20% PEG 400, and 55% sodium phosphate (50 mM, pH 6.0). Five mice were administered with Compound 1 in Formulation I via oral gavage at a dosage of 20 mg/kg while two other mice were orally treated with Formulation I alone (no inhibitor)."}, "genotype 1b HCV": {"tested_on": "genotype 1b HCV", "assay": "Oral administration to HCV-infected chimpanzee, viral load (genotype 1b)", "format": "in vivo", "conditions": "Chimpanzee I", "protocol": "(§1) Via oral gavage, two HCV-infected chimpanzees I (male, 56.49 kg and 11 years old; genotype 1b HCV) and II (male, 61.91 kg and 34 years old; genotype 1a HCV) each received a single dosage of 200 mg of Compound 1 in Formulation I while the HCV-infected chimpanzee III (male, 56.19 kg and 18 years old; genotype 1a HCV) was administered a single dosage of 260 mg of the non-phosphorylated analog of Compound 1 (Table 1) in Formulation I. After 12 hours, the HCV viral titer decreased from 24,100 to 10,200 IU/ml (or 58% drop) in Chimpanzee I, from 38,500 to 27,000 IU/ml (or 30% drop) in Chimpanzee II, and from 154,000 to 142,000 IU/ml (or 8% drop) in Chimpanzee III. […] All animals were fasted overnight prior to dosing and a minimum of 2 hours prior to scheduled blood sample collections. Viral load determinations were performed on plasma samples using the HCV TaqMan assay (COBAS® AmpliPrep/COBAS® TaqMan® HCV Test, Version 2, Test Code 1220) for quantitative analysis. […] There were no adverse effects, illness, nor distress seen with the three chimpanzees during the study requiring veterinarian intervention."}, "HCV luciferase replicon": {"tested_on": "HCV luciferase replicon", "assay": "IC50 assay: inhibition of the HCV luciferase replicon in Huh7 cells", "format": "cell-based", "protocol": "After 48 h of treatment at 37° C., the media in each well was removed, the cells were gently washed once with phosphate buffered saline (PBS) and subsequently lysed by the addition of Glo Lysis Buffer (Promega). After a 15 min incubation at room temperature to allow for complete cell lysis, Bright-Glo luciferase reagent (Promega) was added to each well and the relative luciferase activity in each well was determined by using a Glowmax 96 microplate luminometer (Promega).\nIC50 values determined using the above methods for inhibition of the HCV luciferase replicon in Huh7 cells are set forth in Table 1.\nAll compounds were purified by HPLC."}, "[2]": {"assay": "pH stability in aqueous buffer (HPLC/uv)", "protocol": "In order for a prodrug to be orally bioavailable, it must be stable over a wide range of pH values. […] The relative amount of intact prodrug was then determined by first separating the intact prodrug from any potential degradation products by using reverse-phase high performance liquid chromatography (HPLC) and subsequently quantifying the relative amount of remaining prodrug by uv spectrophotometry."}, "PK9 cells [3]": {"tested_on": "PK9 cells", "assay": "Cell transport: cytotoxicity in PK9 cells with or without ENT1 inhibitor NBTI", "conditions": "Homo sapiens, PK9, 48 h", "protocol": "(§2) Huh7 cells were maintained at 37° C. in a humidified atmosphere at 5% CO2 in DMEM containing 10% FBS. […] The cells were then treated with each compound at concentrations ranging from 500 μM to 0 μM in triplicate in DMEM media containing 2% FBS and 0.5% DMSO and without phenol red. After 48 h of treatment at 37° C., the relative number of living cells in each well was determined by using the CellTiter 96 system (Promega) according to the manufacturer's instructions. The 3-(4,5-dimethylthiazol-2-yl)-5-(3-carboxymethoxyphenyl)-2-(4-sulfophenyl)-2H-tetrazolium (MTS) and phenazine methosulfate (PMS) reagents were added to each well of the 96-well plate and the plate was incubated at 37° C. for approximately 2 h. The absorbance at 490 nm and 650 nm in each well was then determined by using a Flexstation 3 microplate reader ([…]). The absorbance determined at 650 nm was then subtracted from the absorbance determined at 490 nm to correct for light scattering. The corrected absorbance values representing the relative number of live cells in each condition were then plotted as a function of compound concentration, and the data were then fit to the following sigmoidal Emax equation by using Kaleidagraph: y=(Emax*x^Slope)/(TC50^Slope+x^Slope) where y is the relative corrected absorbance value, Emax is the maximum relative inhibition, x is the compound concentration, TC50 is the concentration of the compound at which the total cell population is reduced by 50%, and Slope is the slope of the curve.\nTo this end, Huh7 cells or PK9 cells were seeded in 96-well plates at a density of 5,000 cells/well or 2,500 cells/well, respectively, and the plates were incubated at 37° C. for 24 h to allow for cell attachment. The media was then removed from the plates and replaced with media containing 2% FBS, 0.5% DMSO and 10 μM NBTI. […] Subsequently, the cells were treated with each compound at final concentrations ranging from 500 μM to 0 μM in triplicate in media containing 2% FBS, 0.5% DMSO and 10 μM NBTI. […] The TC50 values of each compound in the presence or absence of the ENT1 inhibitor were then compared."}, "PK9 cells [4]": {"tested_on": "PK9 cells", "assay": "TC50 assay in PK9 cells, 48 h", "conditions": "Homo sapiens, PK9, 48 h, read-out: TC50 (μM) in PK9 cells at 48 hr", "protocol": "as §2\nPK9 and RPK9 cells were maintained at 37° C. in a humidified atmosphere at 5% CO2 in Roswell Park Memorial Institute (RPMI) media containing 10% FBS. […] The cells were then treated with each compound at concentrations ranging from […] to 0 μM in triplicate in RPMI media containing 2% FBS and 0.5% DMSO and without phenol red. […] The RPK9 cells were derived from the parental PK9 cell line, and are deficient for dCK activity due to the partial deletion of the dCK gene."}, "genotype 1a HCV": {"tested_on": "genotype 1a HCV", "assay": "Oral administration to HCV-infected chimpanzees, viral load (genotype 1a)", "format": "in vivo, chimpanzee", "protocol": "as §1"}, "Huh7": {"tested_on": "Huh7", "assay": "TC50 assay with human cancer cell lines, 96 h: Huh7", "format": "cell-based", "conditions": "Huh-7, 96 h, read-out: TC50 Huh7 (μM)", "experimental": "Huh7 cells were maintained at 37° C. in a humidified atmosphere at 5% CO2 in DMEM containing 10% FBS. […] The cells were then treated with each compound at concentrations ranging from 500 μM to 0 μM in triplicate in DMEM media containing 2% FBS and 0.5% DMSO and without phenol red. After 48 h of treatment at 37° C., the relative number of living cells in each well was determined by using the CellTiter 96 system (Promega) according to the manufacturer's instructions. The 3-(4,5-dimethylthiazol-2-yl)-5-(3-carboxymethoxyphenyl)-2-(4-sulfophenyl)-2H-tetrazolium (MTS) and phenazine methosulfate (PMS) reagents were added to each well of the 96-well plate and the plate was incubated at 37° C. for approximately 2 h. The absorbance at 490 nm and 650 nm in each well was then determined by using a Flexstation 3 microplate reader (Molecular Dynamics). The absorbance determined at 650 nm was then subtracted from the absorbance determined at 490 nm to correct for light scattering. The corrected absorbance values representing the relative number of live cells in each condition were then plotted as a function of compound concentration, and the data were then fit to the following sigmoidal Emax equation by using Kaleidagraph: y=(Emax*x^Slope)/(TC50^Slope+x^Slope) where y is the relative corrected absorbance value, Emax is the maximum relative inhibition, x is the compound concentration, TC50 is the concentration of the compound at which the total cell population is reduced by 50%, and Slope is the slope of the curve.\nHuh7, HEPG2, HEK293, MCF-7 and BxPC3 cell lines were maintained at 37° C. in a humidified atmosphere at 5% CO2 in DMEM containing 10% FBS. […] The cells were then treated with each compound at concentrations ranging from 500 μM to 0 μM in triplicate in DMEM media containing 2% FBS and 0.5% DMSO and without phenol red."}}}
{"smiles": "CCCC(CCC)C(=O)Nc1ccn([C@@H]2O[C@H](CO[P@@](=O)(N[C@@H](C)C(=O)OC(C)C)Oc3ccccc3)[C@@H](O)C2(F)F)c(=O)n1", "note": "[Compound 1, (S)-isopropyl 2-(((S)-(((2R,3R,5R)-4,4-difluoro-3-hydroxy-5-(2-oxo-4-(2-propylpentanamido)pyrimidin-1(2H)-yl)tetrahydrofuran-2-yl)methoxy)(phenoxy)phosphoryl)amino)propanoate]", "values": [{"measurement": "internal organs after sacrifice", "setting": "[1]; after Day 7", "value": "healthy with no abnormality"}, {"measurement": "signs of toxicity", "setting": "[1]; seven day period of observation", "value": "no signs of toxicity"}, {"measurement": "drop of HCV viral titer after 12 hours", "setting": "genotype 1b HCV; single oral dosage 200 mg", "value": 58, "unit": "%"}, {"measurement": "HCV viral titer after 12 hours", "setting": "genotype 1b HCV; single oral dosage 200 mg in Formulation I, titer before 24,100 IU/ml", "value": "10,200 IU/ml"}, {"measurement": "IC50", "setting": "HCV luciferase replicon; Hepatitis C virus, Huh-7, 48 h", "value": "0.0884 ± 0.0133", "unit": "µM"}, {"measurement": "Therapeutic Index (TC50/IC50)", "setting": "HCV luciferase replicon; TC50 in Huh7 / IC50 HCV replicon, 48 h", "value": 198}, {"measurement": "% of Compound 1 remaining", "setting": "[2]; Pretreatment", "value": 100, "unit": "%"}, {"measurement": "% of Compound 1 remaining", "setting": "[2]; pH 1, aqueous buffer, 40° C., 4 hours, 200 μM", "value": 58, "unit": "%"}, {"measurement": "% of Compound 1 remaining", "setting": "[2]; pH 2, aqueous buffer, 40° C., 4 hours, 200 μM", "value": 85, "unit": "%"}, {"measurement": "% of Compound 1 remaining", "setting": "[2]; pH 4, aqueous buffer, 40° C., 4 hours, 200 μM", "value": 92, "unit": "%"}, {"measurement": "% of Compound 1 remaining", "setting": "[2]; pH 6, aqueous buffer, 40° C., 4 hours, 200 μM", "value": 100, "unit": "%"}, {"measurement": "% of Compound 1 remaining", "setting": "[2]; pH 8, aqueous buffer, 40° C., 4 hours, 200 μM", "value": 47, "unit": "%"}, {"measurement": "CC50", "setting": "PK9 cells [3]; read-out: TC50 (μM) in PK9 cells at 48 h With NBTI", "value": 16.9, "unit": "µM"}, {"measurement": "CC50", "setting": "PK9 cells [3]; read-out: TC50 (μM) in PK9 cells at 48 h Without NBTI", "value": 25.2, "unit": "µM"}, {"measurement": "CC50", "setting": "PK9 cells [4]", "value": "25.2 ± 13.6", "unit": "µM"}, {"measurement": "drop of HCV viral titer after 12 hours", "setting": "genotype 1a HCV; Chimpanzee II, single oral dosage 200 mg", "value": 30, "unit": "%"}, {"measurement": "HCV viral titer after 12 hours", "setting": "genotype 1a HCV; Chimpanzee II, single oral dosage 200 mg in Formulation I, titer before 38,500 IU/ml", "value": "27,000 IU/ml"}, {"measurement": "effectiveness in inhibiting HCV in chimpanzees (comparison)", "setting": "genotype 1a HCV; single oral dosage, 12 hours", "value": "more effective than its non-phosphorylated analog"}, {"measurement": "CC50", "setting": "Huh7", "value": "3.28 ± 0.57", "unit": "µM"}]}
